Assay results published in a melting point compilation (Tetko et al.; mined from patent text by program, amines drawn as free bases though some values may be those of a salt).

| Compound | melting point [°C] |
| --- | --- |
| Oc1ccc2sc(-c3ccc(OCCN4CCCC4)cc3)c(Cc3ccc(OC4CCCCC4N4CCCCC4)cc3)c2c1 (stereo not given) | 103 to 106 |
| O=C(c1ccc(C(F)(F)F)cc1S(=O)c1ccc(Cl)cc1)c1cnoc1C1CC1 (stereo not given) | 151 |
| O=CN1CCC(Oc2c(F)c(F)c(F)c(F)c2F)CC1 | 32 to 34 |
| CCCCCCCCCCCCCCCCCCCC(=O)OCC(O)COC(=O)CCCCCCCCCCCCCCCCCCC | 83 to 84 |
| COC(=O)Nc1cn2cc(Sc3ccccc3)ccc2n1 | 247 to 249 |
| Nc1ncnc2c1nc(O)n2CCc1ccccc1 | 256 to 258 |
| COC(=O)c1ccccc1C1(c2ccccc2)OCC(CCl)O1 (stereo not given) | 90 to 91 |
| O=C(NCCN1CCNCC1)c1cccc(C=CC(=O)N2CCc3c([nH]c4ccccc34)C2c2ccc3c(c2)OCO3)c1 (stereo not given) | 138 to 140 |
| O=Cc1cc(Br)cnc1Cl | 88 to 89 |
| CCCNC(=O)c1cnc2ccccn2c1=O | 120 to 122 |
| Oc1ccc(Br)c2c1CCCC2 | 83 to 85 |
| Cc1c(-c2ccncc2)c(-c2ccc(F)cc2)n2c1SCC2 | 208 |
| N#Cc1csc([N+](=O)[O-])c1Br | 176 to 178 |
| OCCc1cc(-c2ccc(Cl)cc2)no1 | 65.5 to 67.5 |
| C[C@@H](c1ncncc1F)[C@@](Cn1cncn1)(OP(=O)(OCc1c(F)cccc1Cl)OCc1c(F)cccc1Cl)c1ccc(F)cc1F | 140 to 141 |
| Cc1ccc(N2CCN(CCC3NC(=O)c4ccccc43)CC2)cc1C (stereo not given) | 167 to 169 |
| CCCCCN(C)C(=O)c1ccc(Cl)nn1 | 98 to 101 |
| O=c1c2ccccc2sn1CCN1CCN(c2ccccc2)CC1 | 115 to 117 |
| COc1ccc(/C=C/C(=O)C2C(=O)CC(c3ccc(OC)cc3)C([N+](=O)[O-])C2c2cccs2)cc1 (stereo not given) | 160 to 162 |
| OCc1cnoc1-c1cc(Cl)ccc1Cl | 51 to 52 |
| COc1cc2c(cc1OC)C(CCN1CCN(c3cccc(Cl)c3)CC1)OCCC2 (stereo not given) | 125 to 126 |

| Compound | melting point [°C] |
| --- | --- |
| CC(=O)OC1CSC(Oc2cccc(-c3nccs3)c2)C(OC(C)=O)C1OC(C)=O (stereo not given) | 65 |
| CC1(c2ccc(F)c(S(N)(=O)=O)c2)OCCO1 | 149 to 150 |
| CC(=Cc1ccc(Oc2ccc(C)nc2)cc1)C(=O)O | 211 to 214 |
| CCCCCCCCOc1ccc(-c2nc(-c3ccccc3)c(-c3ccccc3)n2CCCCCCCC(=O)O)cc1 | 114 to 115 |
| CCCCCCCCCCCCCCOc1ccc(N)cc1OCCCCCCCCCCCCCC | 55 to 58 |
| COc1cccc(-c2c(Cl)cccc2Cl)c1OC | 49 to 50 |
| CC(C)OC(=O)C(Cl)(Cl)P(=O)(OC(C)C)c1ccccc1 (stereo not given) | 42 to 44 |
| Cc1cc(C(C)(C)C)c(OP2OCCN2C(C)(C)C)c(C(C)(C)C)c1 (stereo not given) | 105 to 107 |
| COc1ccc(Cn2cc3nc(Nc4ccc(C(F)(F)F)cc4Cl)nc(OCc4ccccc4)c3n2)cc1 | 189 to 192 |
| C=CCc1ccc(OCC(O)CO)c(OC)c1 (stereo not given) | 77 to 79 |
| CC(=O)Nc1nc(C)c(S(=O)(=O)N(CCO)CCO)s1 | 204 |
| O=c1c2c([nH]n1-c1ccc(Cl)cc1F)CCCCC2 | 197 to 201 |
| COC1CC(NC(=O)C(F)(F)F)C(OC)C(C)O1 (stereo not given) | 55 to 60 |
| CS(=O)(=O)c1c(C#N)nn(-c2c(Cl)cc(C(F)(F)F)cc2Cl)c1-n1cccc1 | 200 to 202 |
| CN(C)CCOCC(O)c1ccc2cc(OCc3ccccc3)ccc2c1 (stereo not given) | 100 |
| CC(C)(C)CC(C)(C)c1ccc(Oc2cc3nc(-c4ccco4)oc3cc2[N+](=O)[O-])cc1 | 146 to 148 |
| Cc1c(C(F)(F)F)nc(C(F)(F)F)c(C(=O)O)c1O | 155 to 159 |
| CN1C(=O)C(CC(O)C#N)c2ccccc21 (stereo not given) | 136 to 138 |
| Cc1cc(C)c2c(c1)C=C(/C=C/C=C/C=C/C(=O)O)CO2 | 208 to 210 |
| COc1ccc(OC)c2c1C[C@](O)(CC#N)CC2=O | 160 to 162 |
| O=C(O)c1ccccc1C(=O)c1ccc(N2CCOCC2)cc1O | 184 to 187 |

| Compound | melting point [°C] |
| --- | --- |
| CN(C)C(=O)N(C)c1nnc(C(C)(C)CCl)s1 | 80 to 82 |
| CCc1nc2c(N)nc3ccccc3c2n1CC1(O)CCN(C)CC1 | 233 to 234 |
| CNC(=O)NCC(C)(C)N | 150 |
| C=C(C)C(=O)CCCCCCOc1ccc(C(=O)O)cc1 | 81 to 94 |
| COc1nc(Cl)c(C(C)C)c(OC)n1 | 23 to 24 |
| O=C(O)c1cc(/C=C/c2ccc(O)cc2)ccc1O | 241 to 243 |
| CS(=O)(=O)Nc1ccccc1OCCCN1CCC(OC(c2ccccc2)c2ccccc2)CC1 | 106 to 107 |
| O=C1CNC(=O)N1Cc1ccccc1 | 139 to 140 |
| CO[C@]1(c2csc(Sc3ccc(/C(C)=N/O)cc3)c2)CCO[C@@H]1C (racemic) | 89 to 90 |
| COC(=O)CCC1CCC(=O)N1 (stereo not given) | 52 to 53 |
| CCCCNC(=O)Nc1ccc(N(C)C)cc1C(=O)NCC1CCN(C(c2ccccc2)c2ccccc2)CC1 | 201 to 203 |
| BrCCc1ccc([Si](c2ccccc2)(c2ccccc2)c2ccc(CCBr)cc2)cc1 | 220 |
| O=S(=O)(c1ccccc1)N1CCC(C(=NCCc2ccccc2)c2ccc(F)cc2)CC1 | 123 to 126 |
| OCc1ccc2oc(-c3ccc(O)cc3)cc2c1 | 248 to 250 |
| N#Cc1ccc(Cc2nccc(-c3ccc(C#N)cc3)n2)cc1 | 155 to 156 |
| O=C1CNC(=S)N1c1ccc2nc(S)sc2c1 | > 266 |
| CC1=Nc2c(C)nn(C)c2C2=NCCN12 | 174 to 177 |
| N#Cc1cnc(Nc2ccc(OCCn3nccn3)cc2)nc1-c1ccccc1 | 156 |
| CC(C(=O)N(C)C)n1cc(-c2ccccc2)c(-c2ccccc2)n1 (stereo not given) | 122 to 124 |
| COC(=O)C(Cl)=C(C)N | 68 to 70 |
| COc1ccc(C(=C/C=C/C(=O)NCCCCc2cccnc2)c2ccc(OC)c(OC)c2)cc1OC | 145 to 146 |

Second part, the compound after the results:

| melting point [°C] | Compound |
| --- | --- |
| 161 to 162 | CCN1C(=O)C(=O)N(c2ccc(Cl)cc2C)C1=S |
| 128 to 130 | CCOC(=O)C1=C(COCC#N)NC(C)=C(C(=O)OC)C1c1ccccc1Cl (stereo not given) |
| 225 to 226 | Cn1cc(C2=C(c3cn(C)c4cc(CC#N)ccc34)C(=O)NC2=O)c2ccccc21 |
| 202 | O=C(c1ccc(I)cc1)c1cc2c3c(c1)c(-c1cccc(Cl)c1)cc(=O)n3CC2 |
| 198 to 200 | Cn1nc(-c2c(F)cccc2Cl)nc1C(C)(O)c1ccc(Cl)cc1 (stereo not given) |
| 128 to 130 | CCCCCNC(=O)C(C)Cc1ccc2c(c1)c(Cc1ccc(C(=O)OC)cc1OC)cn2C (stereo not given) |
| 126 to 129 | CCC1c2cccn2-c2ccc(C(F)(F)F)cc2N1S(=O)(=O)c1ccc(OC)c(Cl)c1 (stereo not given) |
| 191 to 193 | NC(=O)Cc1ccc2[nH]cc(CCN3C(=O)c4ccccc4C3=O)c2c1 |
| 138 | COc1ccc(S(=O)(=O)N(CCCO)c2ccc(Cl)cc2Cc2c(F)cccc2F)cc1OC |
| 161 | CCOC(=O)c1ccc(C(=O)C2=NS(=O)(=O)c3ccccc3C2=O)cc1 |
| 180 to 183 | CCOC(=O)c1cn([C@@H](C)COS(C)(=O)=O)c2c(F)c(-c3cc(C)nc(C)c3)c(F)cc2c1=O |
| 120 to 122 | CCOC(=O)c1cc(-n2c(=O)cc(C)n(C)c2=O)ccc1Cl |
| 41 to 42 | Cc1cc(CCCCCOc2c(C)cc(-c3noc(C(F)(F)F)n3)cc2C)on1 |
| 140 to 143 | Cc1onc(-c2ccccc2)c1-c1cc(F)c(S(C)(=O)=O)c(F)c1 |
| 154 | CCOC(OCC)c1cccc2c1Sc1c(C=O)cccc1N2C |
| 114 to 117 | CCOC(=O)C(=O)c1cc(F)cc2cccnc12 |
| 210 to 212 | Fc1ccc(Oc2cc3cnc(Cl)nc3cn2)c(F)c1 |
| 165 to 166 | Cc1ccc2cc(CCCc3ccncc3)c(=O)n(-c3cccc([N+](=O)[O-])c3)c2n1 |
| 175 to 177 | COc1ccc(-n2nc(Sc3cc(C)cc(C)c3)c(C)c(C#N)c2=O)cc1 |

| melting point [°C] | Compound |
| --- | --- |
| 230 to 232 | COc1ccc(S(=O)(=O)c2cc(O)c(O)cc2C)cc1NC(C)=O |
| 127 to 129 | CCOC(=O)C1(NS(=O)(=O)c2ccc3c(Cl)cnc(Cl)c3c2)CCCC1 |
| 103 to 104 | Cc1cc(F)ccc1Nc1nc(N(C)c2ccccc2)c2cc(OCCCN(C)C)ccc2n1 |
| 233 to 235 | CC(C)c1[nH]n(-c2c(Cl)cc(Cl)cc2Cl)c2nc(Cc3ccc(N=C=O)cc3)nc(=O)c1-2 |
| 160 to 162 | CC(C)(O)COCc1onc(-c2ccccc2)c1-c1ccc(S(N)(=O)=O)cc1 |
| 70 to 71 | Cc1ccc(C(=O)N(CCCNC(=O)OC(C)(C)C)C(c2nc3snc(C)c3c(=O)n2Cc2ccccc2)C(C)C)cc1 (stereo not given) |
| 189 to 192 | Cc1c(NC(=O)c2ccc(-c3ccc(F)cc3)cc2)ccc2cc(C(C)O)cnc12 (stereo not given) |
| 118 to 122 | CC(C)NS(=O)(=O)c1ccc(N)c(C(=O)N2CCN(C)CC2)c1 |
| 90 | CCOC(=O)c1cc(F)cnc1NCc1ccc(OC)cc1 |
| 120 to 124 | CCCC(O)c1cnc2nc(C)c(OCC)cc2c1Nc1ccc(OC)cc1 (stereo not given) |
| > 300 | NC(=O)c1cc2cc(OC(F)(F)F)cc(NS(=O)(=O)c3cccs3)c2[nH]1 |
| 184 to 188 | CC(C)NC(=O)Nc1nc2nc(N)ncc2cc1-c1c(Cl)cccc1Cl |
| 182 to 184 | CC(=O)c1cc(F)c(N)c(C#N)c1F |
| 209 | CCOC(=O)C1=C(C)Nc2nc(N3CCOCC3)nc(N3CCOCC3)c2C1c1ccncc1 (stereo not given) |
| 90 to 95 | Cc1cc(CNC(=O)c2cc(-c3ccc(-c4ccccc4)cc3)nn2C)ccc1OC(C)(C)C(=O)O |
| 148 to 152 | Cc1ccc(NC(=O)c2cccc(C(F)(F)F)c2)cc1-c1ccc2ccncc2c1 |
| 111 to 113 | CN(C)Cc1ccc(Cn2ccc(OCc3ccc(F)cc3F)c(Br)c2=O)cc1 |
| 207 to 209 | COC(=O)C(C)(C)Oc1ccc2c(=O)n(CC(C)C)c(CNC(=O)OC(C)(C)C)c(-c3ccccc3)c2c1 |
